Results: patent US5506361A, “Imidazobenzoquinones and composition for preventing or treating hypertension or congestive heart failure containing the same” (TheUpjohn Company, priority 1991, dated 1996)

Columns and labels:
[1] = tested on: blood pressure increasing by angiotensin II; experiment: Antagonism to blood pressure increasing by angiotensin II in a spine destroyed rat; type: in vivo, Wistar rat; conditions: Rattus norvegicus; test 4); intravenous; 3 μg/kg angiotensin II i.v.; inhibition of blood pressure increase
From the text: 4)Antagonism to blood pressure increasing by angiotensin II in a spine destroyed rat
Wistar rat anesthetized with pentobarbital was fixed at dorsal position, and a cannula for measuring blood pressure was inserted into sinister arteria carotis communis, and a cannula for administration of the test compound into dexter external jugular vein and a cannula for administration of angiotensin II into sinister external jugular vein, arebilateral nervous vagus was cut, and artificial respiration was carried out. A thin bar made of metal was stabbed into spinal column through sininster orbita to destroy spine. Blood pressure was recorded on polygraph via pressure transducer from an arterial cannula. After blood pressure was stable for more than 30 min., 3μg/kg of angiotensin II was administered intravenously four times every 15 min., and every 5 min. before the administration of angiotensin II from the second admininstration onward, a solvent, a lower dose of the test compound, and a higher dose of the test compound were admininstered intravenously in this order to observe the blood pressure increasing response by angiotensin II. ED50 values were calculated from the inhibiting rate when the first blood pressure increase by angiotensin II was regarded as 100%.

[2] = tested on: angiotensin II constriction in isolated rabbit thoracic aorta; experiment: Antagonism to angiotensin II constriction in an isolated rabbit thoracic aorta; type: cell-based; conditions: test 3); 10^-6 M test compound, 20 min; pA2 = -logKB
Method: 3) Antagonism to angiotensin II constriction in an isolated rabbit thoracic aorta
A rectangular strip-like sample of thoracic aorta isolated from an anethetized rabbit was prepared, and this was suspended at 2.0 g of loaded tension in a Magnus tube filled with Krebs-Henseleitoid nutrition solution which was well aerated with 95% O2 -5% CO2, and the constriction tension was measured using an isometric transducer. After the tension of the sample at rest became stable, accumulative administration of angiotensin II was carried out to obtain a concentration-action curve. Thereafter, the sample was washed with the same nutrition solution, and then 10^-6 M test compound was treated for 20 min. to obtain again a concentration-action curve of angiotertsin II. The results were obtained as followed: generated maximum tension at the first accumulative administration of angiotensin II was regarded as 100%, and the 50% effective concentration (ED50) was obtained in the presence or absence of the test compound, and pA2 value was calculated according to the following equations:
pA2 =-logKB KB =C/{(A'/A)-1}
C: concentration of the test compound (M)
A': ED50 in the presence of test compound (M)
A:ED50 in the absence of the test compound (M)

[3] = target: angiotensin II mesenteric artery receptor; experiment: In vitro angiotensin II mesenteric artery receptor binding assay; conditions: test 1); 125I-Ang II 0.2 nM, rat mesenteric artery membrane fraction, 22° C., 90 min
Method: 1) In vitro angiotensin II mesenteric artery receptor binding assay
According to the method (1) by Gunther et at., a membrane fraction was prepared from mesenteric artery of a male rat, 50 μg protein equivalent thereof and 0.2 nM ^125 I-Ang II as well as various concentrations of test compounds were incubated at 22° C. for 90 min. in 200 μl reaction volume of incubation buffer (50 mM Tris-HCl, 120 mM NaCl, 5 mM MgCl2, 0.25% bovine serum albumin, pH7.2). This was cooled, and the reaction was stopped by addition of ice-cooled phosphate buffer (10 mM phosphate, 140 mM NaCl, pH7.4, hereinafter referred to as PBS), and then the reaction solution was filtered through a glass fiber filter (Whatman CF/B), the filter was washed, dried, and then the radioactivity of captured ^125 I-angiotensin II which bound to the receptor was measured by γ-counter. Non-specific binding mount was obtained from the reaction in the presence of 1 μM of unlabeled angiotensin II. The test compound was tested at the concentration of 0.01 to 1 μM, and those that inhibited more than 50% of total specific binding mount at 1 μM was determined as an active compound, and 50% inhibiting concentration (IC50) was obtained [see Gunther, S., Gimbrone, M. A. and Alexander, R. W., Circ. Res., 17:278-286, 1980].

[4] = target: adrenal cortex angiotensin II receptor; experiment: In vitro adrenal cortex angiotensin II receptor binding assay; conditions: test 2); membrane fraction from adrenal cortex of male rat
Method: 2) In vitro adrenal cortex angiotensin II receptor binding assay
According to the method by Capponi et at. (1), angiotensin II receptor binding assay was carried out by preparing a membrane fraction from an adrenal cortex of a male rat and using this as a receptor material in the same manner as in the above-described pharmacological test 1) [see Capponi, A. M. and Catt, K., J. Biol. Chem. 254:5120-5127(1979)].

SMILES | ED50 [1] | pA2 [2] | IC50 [3] | IC50 [4]
CCCCc1nc2c(n1Cc1ccc(-c3ccccc3C(=O)O)cc1)C(=O)c1ccccc1C2=O [Compound No. 1, 1-[(2'-Carboxybiphenyl-4-yl)methyl]-2-n-butyl-1H-naphthimidazol-4,9-dione] | 22.6 mg/kg | 6.64 | 610 nM | 540 nM
CCCCc1nc2c(n1Cc1ccc(-c3ccccc3C(=O)OC(C)(C)C)cc1)C(=O)c1ccccc1C2=O [Compound No. 2, 1-[(2'-t-Butoxycarbonylbiphenyl-4-yl)methyl]-2-n-butyl-1H-naphthimidazol-4,9-dione] | – | 7.60 | 50 nM | 48 nM
